Read-outs that look alike come from different tables or passages of the source.
Assays:
[1] = LogD7.4 by shake-flask method (n-octanol/PBS); type: physicochemical; details: ^203Pb-labeled compound; n-octanol/PBS pH 7.4; n = 3
Description: Distribution coefficients (LogD7.4) were determined by the shake-flask method. A sample containing the ^203Pb-labeled compound (~1 MBq) was added to a vial containing PBS (600 µL, pH 7.4) and n-octanol (600 µL). The vial was vortexed vigorously and then centrifuged at 10,000 rpm for 10 min for phase separation. Samples (100 µL) of the n-octanol and aqueous phases were taken and measured by a gamma counter. The LogD7.4 value was calculated by using the equation: LogD7.4 = log [(counts in the n-octanol phase)/(counts in the aqueous phase)]. Measurements were performed in triplicate.

[2] = SPECT/CT imaging with 203Pb-labeled ligands; type: in vivo; details: mouse; for tissue uptake per volume / tissue uptake per volume at 1 h / tissue uptake per volume at 24 h: male, Balb/c nu/nu, tumor, iv, 0.5 nmol, total radioactivity, read-out: Tumor uptake from SPECT images; for tissue uptake per volume: 1, 4 and 24 h after administration, n = 4; for tissue uptake per volume at 1 h: 1 h post-injection; for tissue uptake per volume at 24 h: 24 h post-injection; for half-life: kidneys, intravenous, ^203Pb-labeled, H69 tumor-bearing mice, read-out: Renal clearance half-life (converted)
Description: SPECT/CT imaging was performed in H69-xenografted Balb/c nu/nu mice at 1, 4, and 24 h after the administration of [^203Pb]Pb-eSOMA-01 or [^203Pb]Pb-eSOMA-02. Tumors were visible by SPECT/CT for both radioligands (Figure 3A,B). […] They increased over time for [^203Pb]Pb-eSOMA-01 (0.5 ± 0.03 at 4 h to 0.70 ± 0.11 at 24 h), while they remained nearly constant for [^203Pb]Pb-eSOMA-02 (0.30 ± 0.09 at 4 h and 0.4 ± 0.03 at 24 h).
(§1) Six-week-old male Balb/c nu/nu-specific and opportunistic pathogen-tree (SOPF) mice (Janvier Labs, Le Genest-Saint-Isle, France) were housed in individually ventilated cages, with four mice per cage. Upon arrival, the mice were acclimated for 1 week with access to food and water ad libitum. Mice were subcutaneously inoculated on the right shoulder with NCI-H69 cells (5 × 10^6 cells suspended in 100 μL of 1/3 Matrigel (Corning Inc.; Corning, NY, USA) and 2/3 Hank’s balanced salt solution (Gibco; Paisley, UK). NCI-H69 xenografts were allowed to grow for 3 weeks. Tumor sizes were 391 ± 173 mm^3 at the start of the studies.
Mice (n = 4 per compound) were intravenously injected in the tail vein with 100 μL of [^203Pb]Pb-eSOMA-01 (12.31 ± 1.44 MBq, 0.5 nmol) or [^203Pb]Pb-eSOMA-02 (13.06 ± 1.44 MBq, 0.5 nmol) containing Kolliphor HS 15 (Merck; Haarlerbergweg, The Netherlands) in PBS (0.06 mg/mL). At 1, 4, and 24 h post-injection (p.i.), mice were imaged in a prone position on a heated bed under 2% isoflurane/O2 anesthesia in a dedicated small-animal PET/SPECT/CT VECTOR5 scanner (MILabs B.V.; Utrecht, The Netherlands) with a high-sensitivity pinhole collimator (HE-GP-M, 1.6 mm pinholes). Whole-body SPECT images were acquired over one frame of 20 min (for 1 and 4 h time points) and two frames of 20 min (for 24 h time points) using a spiral scan in normal scan mode, in list-mode acquisition. This was followed by a whole-body normal CT scan (angle step 0.75 degrees, 50 kV tube voltage, 0.21 mA tube current). Reconstruction of the SPECT images was performed using the similarity-regulated SROSEM method (MILabs Rec 11.00 software), performing five iterations with a voxel size of 0.4 mm, using 72 keV ± 30% and 280 keV ± 8% energy windows for lead-203. Reconstructed volumes of SPECT scans were post-filtered with an isotropic three-dimensional Gaussian filter of 1 mm full width at half-maximum. Image processing and analyses of the reconstructed data were performed using the PMOD image analysis software version 3.9 (PMOD Technologies; Zurich, Switzerland) to calculate the percentage of injected dose per mL (% ID/mL). An Eppendorf tube filled with a solution of lead-203 of known activity was measured to determine the calibration factor.

[3] = In vitro stability in PBS; type: physicochemical; details: phosphate buffered saline, pH 7.4; ^203Pb-labeled; 24 h; 37 °C; n = 1; read-out: Stability in PBS, intact labeled ligand
Description: The ^203Pb-labeled compounds (~ 2 MBq) or the ^212Pb-labeled compounds (~ 70 kBq) were incubated in 300 µL of phosphate buffered saline (PBS; 0.1 M, pH 7.4) or mouse serum at 37 °C. The stability of the radiolabeled peptides was monitored at 1, 4, and 24 h post-incubation. The samples in PBS were directly analyzed by radio-HPLC without any pretreatment. However, samples of mouse serum were mixed with an equal volume of acetonitrile to precipitate the proteins. The solution was centrifuged twice for 5 min at 13,000 rpm, and the supernatant was analyzed by radio-HPLC using Method 1 for lead-203 and Method 2 for lead-212.

[4] = Ex vivo biodistribution with lead-203; type: in vivo, mouse; details: mouse, 24 h post-injection
Description: as §1
(§2) To determine the biodistribution of the compounds after imaging (1, 4, and 24 h p.i.), blood was collected via retro-orbital puncture under isoflurane/O2 anesthesia, after which the mice were sacrificed via cervical dislocation. The tumor and organs of interest (heart, lungs, liver, spleen, stomach, large intestine, small intestine, pancreas, kidneys, muscle, skin, and bone) were excised, washed in PBS, blotted dry, and collected into tubes. The blood, tumor, and relevant organs were weighed and measured with a gamma counter. The percentage of injected dose per gram (% ID/g) was determined for each tissue sample and corrected for both the injected volume and the % ID present at the injection site (the tail).

H69 tumor bearing mice = assay: Ex vivo biodistribution with lead-203; type: in vivo, mouse; details: after 4 h (so in the source); p < 0.05
Description: as §1, §2

AR42J tumors = details: in vivo, cited from earlier work
[5] = blood, n = 4, read-out: Blood uptake
[6] = bone, n = 4, read-out: Bones uptake
[7] = heart, n = 4, read-out: Heart uptake
[8] = kidneys, n = 4, read-out: Kidneys uptake
[9] = large intestine, n = 4, read-out: Large Intestine uptake
[10] = liver, n = 4, read-out: Liver uptake
[11] = lungs, n = 4, read-out: Lungs uptake
[12] = muscle, n = 4, read-out: Muscle uptake
[13] = non-target organs other than kidneys, intravenous, organs other than kidneys, read-out: Uptakes in all the other non-target organs
[14] = pancreas, n = 4, read-out: Pancreas uptake
[15] = skin, n = 4, read-out: Skin uptake
[16] = small intestine, n = 4, read-out: Small Intestine uptake
[17] = spleen, n = 4, read-out: Spleen uptake
[18] = stomach, n = 4, read-out: Stomach uptake
[19] = tumor, n = 4, read-out: Tumor uptake

| Compound | logD [1] | tissue uptake per volume [2] [%ID/mL] | tissue uptake per volume at 1 h [2] [%ID/mL] | tissue uptake per volume at 24 h [2] [%ID/mL] | half-life [2] [h] | remaining at 24 h [3] [%] | tissue uptake at 24 h [4, 5] [%ID/g] | tissue uptake at 24 h [4, 6] [%ID/g] | tissue uptake at 24 h [4, 7] [%ID/g] | tissue uptake at 24 h [4, 8] [%ID/g] | tissue uptake at 24 h [4, 9] [%ID/g] | tissue uptake at 24 h [4, 10] [%ID/g] | tissue uptake at 24 h [4, 11] [%ID/g] | tissue uptake at 24 h [4, 12] [%ID/g] | tissue uptake at 24 h [4, 13] [%ID/g] | tissue uptake at 24 h [4, 14] [%ID/g] | tissue uptake at 24 h [4, 15] [%ID/g] | tissue uptake at 24 h [4, 16] [%ID/g] | tissue uptake at 24 h [4, 17] [%ID/g] | tissue uptake at 24 h [4, 18] [%ID/g] | also measured |
| --- | --- | --- | --- | --- | --- | --- | --- | --- | --- | --- | --- | --- | --- | --- | --- | --- | --- | --- | --- | --- | --- |
| C[C@@H](O)[C@H](NC(=O)[C@@H]1CSSC[C@H](NC(=O)[C@@H](Cc2ccccc2)NC(=O)[C@H]2CC[C@H](CNC(=O)CN3CCN(CC(N)=O)CCN(CC(N)=O)CCN(CC(N)=O)CC3)CC2)C(=O)N[C@@H](Cc2ccc(O)cc2)C(=O)N[C@H](Cc2c[nH]c3ccccc23)C(=O)N[C@@H](CCCCN)C(=O)N[C@@H]([C@@H](C)O)C(=O)N1)C(=O)O [[^203Pb]Pb-eSOMA-01, metal not drawn] | -1.99 ± 0.03 | 3 to 4 | ~4 | 2 to 3 | 14.7 ± 2.4 | > 97 | 0.05 ± 0.02 | 0.27 ± 0.02 | 0.05 ± 0.01 | 7.44 ± 1.17 | 0.34 ± 0.08 | 0.86 ± 0.1 | 0.36 ± 0.05 | 0.18 ± 0.03 | < 1 | 0.12 ± 0.02 | 0.03 ± 0.02 | 0.12 ± 0.02 | 0.22 ± 0.03 | 0.75 ± 0.34 | tissue uptake at 24 h [4, 19]: 2.89 ± 0.84 %ID/g |
| C[C@@H](O)[C@H](NC(=O)[C@@H]1CSSC[C@H](NC(=O)[C@@H](Cc2ccccc2)NC(=O)CN2CCC(NC(=O)CN3CCN(CC(N)=O)CCN(CC(N)=O)CCN(CC(N)=O)CC3)CC2)C(=O)N[C@@H](Cc2ccc(O)cc2)C(=O)N[C@H](Cc2c[nH]c3ccccc23)C(=O)N[C@@H](CCCCN)C(=O)N[C@@H]([C@@H](C)O)C(=O)N1)C(=O)O [[^203Pb]Pb-eSOMA-02, metal not drawn] | -1.88 ± 0.03 | 3 to 4 | ~4 | 2 to 3 | 24.2 ± 4.5 | > 97 | 0.17 ± 0.11 | 0.67 ± 0.04 | 0.09 ± 0.02 | 12.6 ± 0.02 | 0.41 ± 0.06 | 1.11 ± 0.05 | 0.53 ± 0.04 | 0.04 ± 0.07 | < 1 | 0.83 ± 0.96 | 0.43 ± 0.09 | 0.24 ± 0.03 | 0.61 ± 0.15 | 0.67 ± 0.19 | tissue uptake at 24 h [4, 19]: 2.54 ± 0.36 %ID/g; More uptake in the kidneys compared to [203Pb]Pb-eSOMA-01 (H69 tumor bearing mice): around 41% |
| C[C@@H](O)[C@H](NC(=O)[C@@H]1CSSC[C@H](NC(=O)[C@@H](Cc2ccccc2)NC(=O)CN2CCN(CC(N)=O)CCN(CC(N)=O)CCN(CC(N)=O)CC2)C(=O)N[C@@H](Cc2ccc(O)cc2)C(=O)N[C@H](Cc2c[nH]c3ccccc23)C(=O)N[C@@H](CCCCN)C(=O)N[C@@H]([C@@H](C)O)C(=O)N1)C(=O)O [[^203Pb]Pb-DOTAM-TATE, metal not drawn, reference compound] | -1.41 ± 0.01 |  |  |  |  | > 97 |  |  |  |  |  |  |  |  |  |  |  |  |  |  | Tumor uptake (AR42J tumors; 1 h): 13 % ID/g; Uptake in kidneys (AR42J tumors; 24 h): ~ 13 % ID/g |

Reference: publication PMC10384862, “[^212Pb]Pb-eSOMA-01: A Promising Radioligand for Targeted Alpha Therapy of Neuroendocrine Tumors” (Pharmaceuticals, 2023)
